Results taken from patent US20240101589A1, “INHIBITORS OF METTL3” (Strom Therapeutics Limited, priority 2020, published 2024).

Each molecule was assayed against METTL3/14 (Homo sapiens (Human), UniProt Q86U44) (assay: METTL3/14 methyltransferase assay (RapidFire mass spectrometry, RFMS)). Details: 5 nM METTL3/14, 0.2 μM RNA substrate, 0.5 μM SAM, 60 minutes at room temperature.
Assay type: biochemical
Experimental: The enzymatic assay was established to determine IC50 values for inhibition of RNA methyltransferase activity. The enzyme used was full-length his-tagged METTL3 co-expressed with full length FLAG-tagged METTL14 in a baculovirus expression system. Enzymatic reactions were performed at room temperature in 384-well plates using a final reaction volume of 20 μL containing 20 mM TrisCl pH 7.6, 1 mM DTT, 0.01% Tween-20. 5 nM final concentration of METTL3/14 was pre-incubated with various compound concentrations for 10 minutes, followed by addition of 0.2 μM final concentration synthetic RNA substrate (5′P-[…]-3′) and 0.5 μM final concentration S-adenosyl-methionine (SAM). The reaction was incubated for a further 60 minutes at room temperature, and then quenched by the addition of 40 μL 7.5% TCA with two internal product standards (D4-SAH and 13C10-SAH). After termination, plates were sealed, centrifuged and stored at 4° C. until analysis.
RNA methyltransferase activity was measured label free using the RapidFire™ mass spectrometry (RF/MS) platform. Stopped and stable assay plates were analyzed on the Agilent RF300 integrated autosampler/solid-phase extraction (SPE) system coupled to an ABSciex 4000 mass spectrometer for the generation of the product S-adenosyl homocysteine (SAH) and normalized to the ratio of signal of the two internal product standards, respectively. Solvent A was water containing 0.1% (v/v) TCA. Solvent B was acetonitrile/0.1% ammonium acetate (8:2, v/v). More specifically, plates were centrifuged at 4350 rpm for 10 min, samples were aspirated under vacuum for 600 ms, then loaded onto a C18 solid-phase extraction cartridge and washed for 3 s with solvent A at a flow rate of 1.5 mL/min. Retained product and internal standards were eluted with solvent B at a flow rate of 1 mL/min for 3 s and finally the cartridge was re-equilibrated with solvent A for 500 ms. The mass transition for the product (SAH) was 384.9/135.9 Da. Transitions of the two internal product standards (IS1: D4-SAH and IS2: 13C10-SAH) were 389.1/135.8 Da and 395.0/134.2 Da, respectively. Ratios of SAH/IS1 and SAH/IS2 were used for normalization of matrix effects. IC50 values were calculated based on dilution series of individual compounds. Potency of a compound was measured at varied inhibitor concentrations and normalized to control wells without RNA substrate and without inhibition (DMSO only).

Chain of METTL3/14 (Q86U44 whole entry): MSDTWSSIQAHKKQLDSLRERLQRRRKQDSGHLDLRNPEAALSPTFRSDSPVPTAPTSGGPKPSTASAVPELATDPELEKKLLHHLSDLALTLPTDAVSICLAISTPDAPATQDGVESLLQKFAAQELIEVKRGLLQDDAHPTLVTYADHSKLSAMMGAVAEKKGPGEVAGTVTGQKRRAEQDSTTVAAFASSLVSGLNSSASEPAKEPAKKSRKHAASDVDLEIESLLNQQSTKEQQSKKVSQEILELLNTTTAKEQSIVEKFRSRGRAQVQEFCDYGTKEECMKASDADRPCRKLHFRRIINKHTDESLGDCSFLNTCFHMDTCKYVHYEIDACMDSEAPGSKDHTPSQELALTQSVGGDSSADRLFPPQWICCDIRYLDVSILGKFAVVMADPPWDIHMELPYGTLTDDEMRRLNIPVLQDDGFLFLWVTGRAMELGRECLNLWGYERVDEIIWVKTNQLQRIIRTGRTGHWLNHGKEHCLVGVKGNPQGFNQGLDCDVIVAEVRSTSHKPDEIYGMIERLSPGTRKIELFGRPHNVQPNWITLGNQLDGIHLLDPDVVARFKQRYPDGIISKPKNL
Chain of METTL3/14 (Q9HCE5 whole entry partner): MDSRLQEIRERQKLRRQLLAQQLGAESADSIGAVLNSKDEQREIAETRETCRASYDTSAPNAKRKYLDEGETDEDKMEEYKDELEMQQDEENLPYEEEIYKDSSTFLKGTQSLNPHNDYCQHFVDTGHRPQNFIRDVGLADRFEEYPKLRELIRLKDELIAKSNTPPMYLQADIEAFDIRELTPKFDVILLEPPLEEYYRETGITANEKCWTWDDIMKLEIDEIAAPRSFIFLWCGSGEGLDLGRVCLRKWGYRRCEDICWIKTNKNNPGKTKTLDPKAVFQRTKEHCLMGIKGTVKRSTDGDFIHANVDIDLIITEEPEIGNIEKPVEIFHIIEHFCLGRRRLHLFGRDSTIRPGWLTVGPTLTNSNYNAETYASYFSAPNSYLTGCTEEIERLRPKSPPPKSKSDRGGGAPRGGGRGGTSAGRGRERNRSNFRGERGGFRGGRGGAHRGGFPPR

Question: With Nc1ncnc2c1c(Br)cn2[C@@H]1O[C@H](/C=C/CCCN2CCOCC2)[C@@H](O)[C@H]1O [Example 25, (2R,3R,4S,5R)-2-{4-amino-5-bromo-7H-pyrrolo[2,3-d]pyrimidin-7-yl}-5-[(1E)-5-(morpholin-4-yl)pent-1-en-1-yl]oxolane-3,4-diol] as the molecule, how does the IC50 read?
Answer: 1.09 µM

Question: For Nc1ncnc2c1c(Br)cn2[C@@H]1O[C@H](/C=C/C2CCNC2)[C@@H](O)[C@H]1O (stereo partly drawn) [Example 16, (2R,3R,4S,5R)-2-{4-amino-5-bromo-7H-pyrrolo[2,3-d]pyrimidin-7-yl}-5-[(1E)-2-(pyrrolidin-3-yl)ethenyl]oxolane-3,4-diol], which IC50 is on record?
Answer: 0.453 µM

Question: For NCCC/C=C/[C@H]1O[C@@H](n2cc(Br)c3c(N)ncnc32)[C@H](O)[C@@H]1O [Example 8, (2R,3R,4S,5R)-2-{4-amino-5-bromo-7H-pyrrolo[2,3-d]pyrimidin-7-yl}-5-[(1E)-5-aminopent-1-en-1-yl]oxolane-3,4-diol], which IC50 is on record?
Answer: 0.505 µM

Question: With Nc1ncnc2c1c(Br)cn2[C@@H]1O[C@H](/C=C/CCCNCC23CC(F)(C2)C3)C[C@H]1O [Example 27, (2R,3R,5S)-2-{4-amino-5-bromo-7H-pyrrolo[2,3-d]pyrimidin-7-yl}-5-[(1E)-5-[({3-fluorobicyclo[1.1.1]pentan-1-yl}methyl)amino]pent-1-en-1-yl]oxolan-3-ol] as the molecule, how does the IC50 read?
Answer: 0.0096 µM

Question: How did the IC50 turn out when Nc1ncnc2c1c(Br)cn2[C@@H]1O[C@H](/C=C/C2CCNCC2)[C@@H](O)[C@H]1O [Example 14, (2R,3R,4S,5R)-2-{4-amino-5-bromo-7H-pyrrolo[2,3-d]pyrimidin-7-yl}-5-[(1E)-2-(piperidin-4-yl)ethenyl]oxolane-3,4-diol] was run?
Answer: 0.413 µM

Question: For Nc1ncnc2c1c(Br)cn2[C@@H]1O[C@H](/C=C/C2CCCNC2)[C@@H](O)[C@H]1O (stereo partly drawn) [Example 15, (2R,3R,4S,5R)-2-{4-amino-5-bromo-7H-pyrrolo[2,3-d]pyrimidin-7-yl}-5-[(1E)-2-(piperidin-3-yl)ethenyl]oxolane-3,4-diol], which IC50 is on record?
Answer: 0.351 µM

Question: Nc1ncnc2c1c(Br)cn2[C@@H]1O[C@H](/C=C/CCCNCC23CC(F)(C2)C3)[C@H](F)[C@H]1O [Example 28, (2R,3S,4R,5R)-2-{4-amino-5-bromo-7H-pyrrolo[2,3-d]pyrimidin-7-yl}-4-fluoro-5-[(1E)-5-[({3-fluorobicyclo[1.1.1]pentan-1-yl}methyl)amino]pent-1-en-1-yl]oxolan-3-ol] was tested. Which IC50 did it give?
Answer: 0.0197 µM

Question: For Nc1ncnc2c1c(Br)cn2[C@@H]1O[C@H](/C=C/CCCNCC23CC(F)(C2)C3)[C@@H](O)[C@H]1F [Example 41, (2R,3R,4R,5R)-5-{4-amino-5-bromo-7H-pyrrolo[2,3-d]pyrimidin-7-yl}-4-fluoro-2-[(1E)-5-[({3-fluorobicyclo[1.1.1]pentan-1-yl}methyl)amino]pent-1-en-1-yl]oxolan-3-ol], which IC50 is on record?
Answer: 0.06 µM

Question: NCC/C=C/[C@H]1O[C@@H](n2cc(Br)c3c(N)ncnc32)[C@H](O)[C@@H]1O [Example 7, (2R,3R,4S,5R)-2-{4-amino-5-bromo-7H-pyrrolo[2,3-d]pyrimidin-7-yl}-5-[(1E)-4-aminobut-1-en-1-yl]oxolane-3,4-diol] was tested. Which IC50 did it give?
Answer: 0.568 µM

Question: Which IC50 does the source give for Nc1ncnc2c1c(Br)cn2[C@@H]1O[C@H](/C=C/CC2CNC2)[C@@H](O)[C@H]1O [Example 19, (2R,3R,4S,5R)-2-{4-amino-5-bromo-7H-pyrrolo[2,3-d]pyrimidin-7-yl}-5-[(1E)-3-(azetidin-3-yl)prop-1-en-1-yl]oxolane-3,4-diol] here?
Answer: 0.522 µM

Question: For Nc1ncnc2c1c(Br)cn2[C@@H]1O[C@H](/C=C/C2COC2)[C@@H](O)[C@H]1O [Example 18, (2R,3R,4S,5R)-2-{4-amino-5-bromo-7H-pyrrolo[2,3-d]pyrimidin-7-yl}-5-[(1E)-2-(oxetan-3-yl)ethenyl]oxolane-3,4-diol], which IC50 is on record?
Answer: 2.93 µM

Question: Which IC50 does the source give for Nc1ncnc2c1c(-c1cc[nH]n1)cn2[C@@H]1O[C@H](/C=C/CCCNCC23CC(F)(C2)C3)[C@@H](O)[C@H]1O [Example 20, (2R,3R,4S,5R)-2-[4-amino-5-(1H-pyrazol-3-yl)-7H-pyrrolo[2,3-d]pyrimidin-7-yl]-5-[(1E)-5-[({3-fluorobicyclo[1.1.1]pentan-1-yl}methyl)amino]pent-1-en-1-yl]oxolane-3,4-diol] here?
Answer: 0.0061 µM

Question: Nc1ncnc2c1c(Br)cn2[C@@H]1C[C@H](c2cccc(C(=O)NCC34CC(F)(C3)C4)c2)[C@@H](O)[C@H]1O [Example 40, 3-[(1R,2R,3S,4R)-4-{4-amino-5-bromo-7H-pyrrolo[2,3-d]pyrimidin-7-yl}-2,3-dihydroxycyclopentyl]-N-({3-fluorobicyclo[1.1.1]pentan-1-yl}methyl)benzamide] was tested. Which IC50 did it give?
Answer: 7.93 µM

Question: How did the IC50 turn out when Nc1ncnc2c1c(Br)cn2[C@@H]1O[C@H](/C=C/C2CNC2)[C@@H](O)[C@H]1O [Example 13, (2R,3R,4S,5R)-2-{4-amino-5-bromo-7H-pyrrolo[2,3-d]pyrimidin-7-yl}-5-[(1E)-2-(azetidin-3-yl)ethenyl]oxolane-3,4-diol] was run?
Answer: 0.46 µM

Question: For Nc1ncnc2c1c(Br)cn2[C@@H]1O[C@H](/C=C/CCCNCc2ccccc2)[C@@H](O)[C@H]1O [Example 1, (2R,3R,4S,5R)-2-(4-amino-5-bromo-7H-pyrrolo[2,3-d]pyrimidin-7-yl)-5-((E)-5-(benzylamino)pent-1-en-1-yl)tetrahydrofuran-3,4-diol], which IC50 is on record?
Answer: 0.0448 µM

Question: Which IC50 does the source give for Nc1ncnc2c1c(Br)cn2[C@@H]1O[C@H](/C=C/C2CC(N)C2)[C@@H](O)[C@H]1O (stereo partly drawn) [Example 17, (2R,3R,4S,5R)-2-{4-amino-5-bromo-7H-pyrrolo[2,3-d]pyrimidin-7-yl}-5-[(1E)-2-(3-aminocyclobutyl)ethenyl]oxolane-3,4-diol] here?
Answer: 1.31 µM

Question: Which IC50 does the source give for Nc1ncnc2c1c(Br)cn2[C@@H]1O[C@H](/C=C/CCCN2CCC(F)(F)CC2)[C@@H](O)[C@H]1O [Example 23, (2R,3R,4S,5R)-2-{4-amino-5-bromo-7H-pyrrolo[2,3-d]pyrimidin-7-yl}-5-[(1E)-5-(4,4-difluoropiperidin-1-yl)pent-1-en-1-yl]oxolane-3,4-diol] here?
Answer: 0.0635 µM

Question: How did the IC50 turn out when Nc1ncnc2c1c(Br)cn2[C@@H]1O[C@H](/C=C/CCCN2CCCC(F)C2)[C@@H](O)[C@H]1O (stereo partly drawn) [Example 26, (2R,3R,4S,5R)-2-{4-amino-5-bromo-7H-pyrrolo[2,3-d]pyrimidin-7-yl}-5-[(1E)-5-(3-fluoropiperidin-1-yl)pent-1-en-1-yl]oxolane-3,4-diol] was run?
Answer: 0.351 µM

Question: With Nc1ncnc2c1c(Br)cn2[C@@H]1O[C@H](/C=C/CCNCc2ccccc2)[C@@H](O)[C@H]1O [Example 3, (2R,3R,4S,5R)-2-{4-amino-5-bromo-7H-pyrrolo[2,3-d]pyrimidin-7-yl}-5-[(1E)-4-(benzylamino)but-1-en-1-yl]oxolane-3,4-diol] as the molecule, how does the IC50 read?
Answer: 0.317 µM

Question: With Nc1ncnc2c1c(Br)cn2[C@@H]1O[C@H](/C=C/CCCN2CCC(F)CC2)[C@@H](O)[C@H]1O [Example 24, (2R,3R,4S,5R)-2-{4-amino-5-bromo-7H-pyrrolo[2,3-d]pyrimidin-7-yl}-5-[(1E)-5-(4-fluoropiperidin-1-yl)pent-1-en-1-yl]oxolane-3,4-diol] as the molecule, how does the IC50 read?
Answer: 0.231 µM

These molecules were tested on KASUMI-1 cells (assay: Kasumi cell proliferation CTG). Details: Homo sapiens, Kasumi 1, 120 h, treated for 120 hours, CellTiter-Glo.
Assay type: cell-based
Experimental: Cell culture: KASUMI-1 cells (ACC20, Leibniz-Institut DSMZ Deutsche Sammlung von Mikroorganismen und Zellkulturen GmbH) were grown in RPMI 1640 (31870-025, Gibco) supplemented with 20% fetal bovine serum (F1524, Gibco), 1 mM sodium pyruvate (11360-039, Gibco) and 2 mM Glutamax (35050-038, Gibco) in a 5% CO2 humidified incubator at 37° C.
Cell treatment and cell growth assessment: KASUMI-1 cells were seeded in ultra-low attachment 384-well culture plate (MS-9384WZ, SBio) at a final concentration of 250 000 cells/ml (35 μL/well) and treated for 120 hours with compounds inhibiting the METTL3/14 activity (10 serial semi-log dilutions, 30 μM as top concentration). Upon treatment, Kasumi1 cells were incubated for 10 min at RT with the CellTiter-Glo reagent (G7571, Promega). Measurement of the luminescence signal was performed on a microplate reader (Ensight, PerkinElmer).

Question: With Nc1ncnc2c1c(Br)cn2[C@@H]1O[C@H](/C=C/C2CC(N)C2)[C@@H](O)[C@H]1O (stereo partly drawn) [Example 17, (2R,3R,4S,5R)-2-{4-amino-5-bromo-7H-pyrrolo[2,3-d]pyrimidin-7-yl}-5-[(1E)-2-(3-aminocyclobutyl)ethenyl]oxolane-3,4-diol] as the molecule, how does the IC50 read?
Answer: 12.4 µM

Question: With Nc1ncnc2c1c(Br)cn2[C@@H]1O[C@H](/C=C/CCCNCC2CC(F)(F)C2)[C@@H](O)[C@H]1O [Example 4, (2R,3R,4S,5R)-2-{4-amino-5-bromo-7H-pyrrolo[2,3-d]pyrimidin-7-yl}-5-[(1E)-5-{[(3,3-difluorocyclobutyl)methyl]amino}pent-1-en-1-yl]oxolane-3,4-diol] as the molecule, how does the IC50 read?
Answer: 4.8 µM

Same assay, conditions: treated for 120 hours, CellTiter-Glo

Question: With Nc1ncnc2c1c(Br)cn2[C@@H]1O[C@H](/C=C/CCCNCc2ccccc2)[C@@H](O)[C@H]1O [Example 1, (2R,3R,4S,5R)-2-(4-amino-5-bromo-7H-pyrrolo[2,3-d]pyrimidin-7-yl)-5-((E)-5-(benzylamino)pent-1-en-1-yl)tetrahydrofuran-3,4-diol] as the molecule, how does the IC50 read?
Answer: 4.9 µM

What follows are molecules tested on Caov-3 cells (assay: Caov3 cell proliferation CTG). Details: Homo sapiens, treated for 120 hours, CellTiter-Glo.
Assay type: cell-based
Experimental: Cell treatment and cell growth assessment: 18 hours post-seeding in white 384-Viewplate (6007480, PerkinElmer) at 1500 cells/well, Caov3 cells were treated for 120 hours with compounds inhibiting the METTL3/14 activity (10 serial semi-log dilutions, 30 μM as top concentration). Upon treatment, Coav-3 cells were incubated for 10 min at RT with the CellTiter-Glo reagent (G7571, Promega). Measurement of the luminescence signal was performed on a microplate reader (Ensight, PerkinElmer).

Question: Which IC50 does the source give for Nc1ncnc2c1c(-c1cc[nH]n1)cn2[C@@H]1O[C@H](/C=C/CCCNCC23CC(F)(C2)C3)[C@@H](O)[C@H]1O [Example 20, (2R,3R,4S,5R)-2-[4-amino-5-(1H-pyrazol-3-yl)-7H-pyrrolo[2,3-d]pyrimidin-7-yl]-5-[(1E)-5-[({3-fluorobicyclo[1.1.1]pentan-1-yl}methyl)amino]pent-1-en-1-yl]oxolane-3,4-diol] here?
Answer: 1.69 µM
